{"source": "patent US10195218B2", "about": "“Crystallization method and bioavailability” (GRUNENTHAL GMBH, priority 2016, dated 2019)", "key": {"[1]": {"test": "Aqueous solubility at room temperature", "assay_type": "physicochemical", "conditions": "water"}, "[2]": {"test": "Dog PK study: serum concentrations of zoledronic acid after IV or oral (gelatin capsule, enteric or non-enteric coated, with or without excess coformer, micronized) dosing, LC/MS/MS", "assay_type": "in vivo", "conditions": "beagle, Leg 1, IV 0.05 mg/kg, saline solution, time 0 hour (pre-dose), read-out: Average serum concentration of 5 dogs"}, "[3]": {"conditions": "cited from earlier work"}, "[4]": {"conditions": "cited from earlier work", "remark": "listed apart in the source"}, "[5]": {"test": "Rat PK study: plasma concentrations of zoledronic acid after IV, oral gavage or intraduodenal (ID) dosing, LC/MS/MS", "assay_type": "in vivo, Sprague-Dawley Rats", "procedure": "These studies were conducted on rats and dogs as they are suitable animal models for zoledronic acid. This can be attributed to the fact that both animals have historically been used in the safety evaluation and PK screening studies and are recommended by appropriate regulatory agencies. […] Pure zoledronic acid and zoledronic acid complexes prepared by the methods in this invention were delivered to the rats and dogs through IV or oral routes. Additional tests included ID administration in rats and administration of enteric coated capsules in dogs. All compounds delivered were well tolerated by the animals with no adverse events or physical abnormalities noticed. […] USA. Surgical catheters (jugular vein and intraduodenum) were implanted to the animals prior to the study. […] Surgical catheters (jugular vein) were implanted prior to the study. […] Zoledronic acid and its complex formulations were administered through IV, oral and ID. […] The dose of each rat was calculated on a per rat basis (not on an average weight of all the rats in the lot). • ii. Oral gavage administration: solid suspensions were administered. The dose of each rat was calculated on a per rat basis (not on an average weight of all the rats in the lot). […] Duodenal cannula administration: solid suspensions were administered. The dose of each rat was calculated on a per rat basis (not on an average weight of all the rats in the lot). […] Group I (IV administration). Group members, designated IV doses are listed below IV comparator group, was conducted to calculate MAT (mean absorption time) and ka (absorption rate constant) for the oral groups. Group II (oral gavage): Group designations and oral doses are listed below: Group III (ID administration): Group designations and oral doses are listed below: Group IV (oral gavage): Group designations and oral doses are listed below: […] Samples were thawed on the day of analysis and the amount of zoledronic acid in the samples was quantified by analyzed by LC/MS/MS method."}, "[6]": {"conditions": "molar concentration of the complex"}, "[7]": {"conditions": "ID (duodenal cannula) 5 mg/kg zoledronic acid equivalent, PEG 400, time 8 hour"}, "[8]": {"conditions": "ID (duodenal cannula) 5 mg/kg zoledronic acid equivalent, PEG 400, time 24 hour"}, "[9]": {"conditions": "PO gavage 5 mg/kg zoledronic acid equivalent, PEG 400, time 24 hour (Table 1)"}}, "note": "Where two headings read alike, the source gives them in different places."}
{"compound": "O=P(O)(O)C(O)(Cn1ccnc1)P(=O)(O)O", "note": "[ZA monohydrate, Zoledronic acid monohydrate, reference compound]", "values": [{"measurement": "solubility", "setting": "[1]; molar concentration of the complex, read-out: Aqueous solubility, mMol/L (complex)", "result": 5.41, "unit": "mmol/L"}, {"measurement": "solubility", "setting": "[1]; read-out: Aqueous solubility, Conc.", "result": 1570, "unit": "µg/mL"}]}
{"compound": "NCCCCC(N)C(=O)O.O.O=P(O)(O)C(O)(Cn1ccnc1)P(=O)(O)O", "note": "[ZA:DL-Lysine monohydrate]", "values": [{"measurement": "Aqueous solubility, Conc.", "setting": "[1]", "result": 13900, "unit": "µg/mL"}, {"measurement": "Aqueous solubility, mMol/L (complex)", "setting": "[1]; [6]", "result": 31.86, "unit": "mmol/L"}]}
{"compound": "NCCCCC(N)C(=O)O.O.O.O=P(O)(O)C(O)(Cn1ccnc1)P(=O)(O)O", "note": "[ZA:L-Lysine dihydrate]", "values": [{"measurement": "Aqueous solubility, Conc.", "setting": "[1]", "result": 8220, "unit": "µg/mL"}, {"measurement": "Aqueous solubility, mMol/L (complex)", "setting": "[1]; [6]", "result": 18.09, "unit": "mmol/L"}]}
{"compound": "O=P(O)(O)C(O)(Cn1ccnc1)P(=O)(O)O", "note": "[Zoledronic acid, (1-hydroxy-2-imidazol-1-yl-1-phosphono-ethyl)phosphonic acid]", "values": [{"measurement": "concentration at 0 h", "setting": "[2]", "result": 0, "unit": "ng/mL"}, {"measurement": "oral bioavailability", "setting": "[3]; according to FDA Summary Basis of Approval", "result": "approximately 1%"}, {"measurement": "gastric and intestinal irritation", "setting": "[3]; in vivo", "result": "severe gastric and intestinal irritations"}, {"measurement": "solubility in 0.1 N HCl solution", "setting": "[4]; 0.1 N HCl solution", "result": "sparingly soluble"}, {"measurement": "solubility in 0.1 N NaOH", "setting": "[4]; 0.1 N NaOH", "result": "freely soluble"}, {"measurement": "solubility in various organic solvents", "setting": "[4]; various organic solvents", "result": "practically insoluble"}, {"measurement": "solubility in water", "setting": "[4]; water", "result": "sparingly soluble"}]}
{"compound": "Zoledronic, L-lysine, and water complex", "values": [{"measurement": "Average plasma concentration of 3 Rats", "setting": "[5]; ID (duodenal cannula) 5 mg/kg zoledronic acid equivalent, PEG 400, time 0.25 hour", "result": 91.21, "unit": "ng/mL"}, {"measurement": "Average plasma concentration of 3 Rats", "setting": "[5]; ID (duodenal cannula) 5 mg/kg zoledronic acid equivalent, PEG 400, time 1 hour", "result": 26.53, "unit": "ng/mL"}, {"measurement": "Average plasma concentration of 3 Rats", "setting": "[5]; ID (duodenal cannula) 5 mg/kg zoledronic acid equivalent, PEG 400, time 4 hour", "result": 0.74, "unit": "ng/mL"}, {"measurement": "Average plasma concentration of 3 Rats", "setting": "[5]; [7]", "result": 0.00, "unit": "ng/mL"}, {"measurement": "Average plasma concentration of 3 Rats", "setting": "[5]; [8]", "result": 0.00, "unit": "ng/mL"}, {"measurement": "Average plasma concentration of 3 Rats", "setting": "[5]; PO gavage 5 mg/kg zoledronic acid equivalent, PEG 400, time 0.25 hour (Table 1)", "result": 258.43, "unit": "ng/mL"}, {"measurement": "Average plasma concentration of 3 Rats", "setting": "[5]; PO gavage 5 mg/kg zoledronic acid equivalent, PEG 400, time 0.5 hour (Table 1)", "result": 249.82, "unit": "ng/mL"}, {"measurement": "Average plasma concentration of 3 Rats", "setting": "[5]; PO gavage 5 mg/kg zoledronic acid equivalent, PEG 400, time 1 hour (Table 1)", "result": 184.95, "unit": "ng/mL"}, {"measurement": "Average plasma concentration of 3 Rats", "setting": "[5]; PO gavage 5 mg/kg zoledronic acid equivalent, PEG 400, time 4 hour (Table 1)", "result": 28.70, "unit": "ng/mL"}, {"measurement": "Average plasma concentration of 3 Rats", "setting": "[5]; PO gavage 5 mg/kg zoledronic acid equivalent, PEG 400, time 8 hour (Table 1)", "result": 3.27, "unit": "ng/mL"}, {"measurement": "Average plasma concentration of 3 Rats", "setting": "[5]; [9]", "result": 0.00, "unit": "ng/mL"}]}
{"compound": "Zoledronic, Nicotinamide, and Water Complex", "values": [{"measurement": "Average plasma concentration of 3 Rats", "setting": "[5]; [7]", "result": 0.00, "unit": "ng/mL"}, {"measurement": "Average plasma concentration of 3 Rats", "setting": "[5]; [8]", "result": 0.00, "unit": "ng/mL"}, {"measurement": "Average plasma concentration of 3 Rats", "setting": "[5]; [9]", "result": 0.00, "unit": "ng/mL"}]}
